Data on one molecule can be found in patent US11052142B2, “Modified endotoxic bacteria lipopolysaccharide (variants), combination of modified lipopolysaccharides (variants) and, containing same, a vaccine (variants) and a pharmaceutical composition (variants)” (priority 2013, dated 2021).

Each structure is given as a SMILES string. Read-outs that look alike come from different tables or passages of the source.

Data set [1] has as its system TNF-α. Description: In vivo production of TNF-α in blood serum after i.v. administration to mice (data from patent RU 2154068). The source says: In this case the vertical axis represents the values for TNF-α concentrations (pg/mL) and the values for IL-6 concentrations (ng/mL). The horizontal axis represents (A and B) the values for injection dose of preparation OM174 (mg/kg) to mice. The vertical axis (C) represents the value for injection dose of LPS ([…]; positive control) and saline solution (0.85% NaCl solution; negative control) to mice.
The solid lines represent the lines of extrapolation for the values of doses for OM174: 0.20; 2.00; 2.01; 3.40 and 28.10 (A and B) and the values of doses for Westphal LPS E coli O:111B4: 0.002; 0.020; 0.200 and 2.000 (C).
According to data from patent RU 2154068, tri-acylated and tetra-acylated lipids A of E. coli, H. influenzae and P. aeruginosa are powerful inducers of mediator of endotoxin reaction—TNF-α. Table 1 represents data extrapolated from graphs on FIG. 1 (A, B, C) relating to in vivo TNF-α production in serum after i.v. administration of tri-acylated lipid A (3-acLA) of E. coli OM-174 and Westphal LPS E. coli O:111B4 to mice. Only 10-fold difference was detected for induction of TNF-α in vivo between E. coli OM-174 tri-acylated lipid A and commercially available endotoxin Westphal LPS E. coli O:111 B4, it is evidence that there is essential endotoxicity of E. coli tri-acetylated lipid A, excluding its use both as vaccine or vaccine component (adjuvant).

For data set [2], the system named is TNF-α. The settings on record: mice, i.v., extrapolated from graphs of RU 2154068, cited from earlier work.

For `CCCCCCCCCCCC(=O)O[C@H](CCCCCCCCCCC)CC(=O)N[C@H]1[C@H](OC[C@H]2O[C@H](OP(=O)(O)O)[C@H](NC(=O)C[C@H](O)CCCCCCCCCCC)[C@@H](O)[C@@H]2O)O[C@H](CO)[C@@H](OP(=O)(O)O)[C@@H]1O` [3-acLA E. coli - OM174], the “difference for induction of TNF-α in vivo versus Westphal LPS E. coli O:111 B4” value in the data set with TNF-α [1] was found to be 10 fold. The TNF-α concentration in the data set with TNF-α [2] (dose 0.2 mg/kg) is on record as 328 pg/mL; with TNF-α [2] (dose 2.0 mg/kg) it was 1644 pg/mL; with TNF-α [2] (dose 2.01 mg/kg), 1416 pg/mL; in the data set on TNF-α [2] (dose 3.4 mg/kg) it was 2000 pg/mL; in the data set on TNF-α [2] (dose 28.1 mg/kg), 2750 pg/mL.
